This is an account of results in patent US11098010B2 (priority 2017, dated 2021).

Each structure is given as a SMILES string. Where a name gives a salt, the structure may show the parent alone. Read-outs that look alike come from different tables or passages of the source.

The experiment relates to HBV rcDNA in HepDE19 cells. The experiment can be described thus: HepDE19 assay with bDNA quantitation of HBV rcDNA. In kind it is cell-based, hepatitis B virus (HBV).
[1] abbreviates: Hepatitis B virus, HepDE19, 168 h, read-out: DE-19 bDNA EC50 (μM), HepDE19 cells, inhibition of rcDNA formation, 7 day incubation, top concentration 25 μM.
[2] abbreviates: Hepatitis B virus, HepDE19, 168 h, HepDE19 cells, inhibition of rcDNA formation, 7 day incubation, top concentration 25 μM, read-out: DE-19 bDNA EC50.

Turning to `C[C@H](OC(=O)N[C@H]1CCc2c(C(=O)Nc3ccc(F)c(Cl)c3)ccc(F)c21)c1ccccn1` [Compound 68, O—(S)-1-(Pyridin-2-yl)ethyl, N—((S)-4-((3-chloro-4-fluorophenyl)carbamoyl)-7-fluoro-2,3-dihydro-1H-inden-1-yl) carbamate], the EC50 under setting [1] amounted to 0.39 µM. Same read-out and setting: with `O=C(N[C@H]1CCc2c(C(=O)Nc3ccc(F)c(Cl)c3)ccc(F)c21)OC[C@@H]1CCCN1` [Compound 69, O—(S)-Pyrrolidin-2-ylmethyl, N—((S)-4-((3-chloro-4-fluorophenyl)carbamoyl)-7-fluoro-2,3-dihydro-1H-inden-1-yl) carbamate Hydrochloride] the figure was 5.1 µM. For the compound `O=C(N[C@H]1CCc2c(C(=O)Nc3ccc(F)c(Cl)c3)ccc(F)c21)OCCC(F)(F)F` [Compound 70, O-3,3,3-Trifluoropropyl, N—(S)-(4-((3-chloro-4-fluorophenyl)carbamoyl)-7-fluoro-2,3-dihydro-1H-inden-1-yl) carbamate], the EC50 under setting [2] amounted to 0.29 µM.

For `Cn1ccc(COC(=O)N[C@H]2CCc3c(C(=O)Nc4ccc(F)c(Cl)c4)ccc(F)c32)n1` [Compound 71, O-(1-Methyl-1H-pyrazol-3-yl)methyl, N—(S)-(4-((3-chloro-4-fluorophenyl)carbamoyl)-7-fluoro-2,3-dihydro-1H-inden-1-yl) carbamate], the EC50 under setting [2] was found to be 0.06 µM.

Consider `O=C1C[C@@H](OC(=O)N[C@H]2CCc3c(C(=O)Nc4ccc(F)c(Cl)c4)ccc(F)c32)CN1` [Compound 72, O—(R)-5-Oxopyrrolidin-3-yl, N—((S)-4-((3-chloro-4-fluorophenyl)carbamoyl)-7-fluoro-2,3-dihydro-1H-inden-1-yl) carbamate], for which the EC50 under setting [2] turned out to be 0.24 µM. As to `Cc1cccc(COC(=O)N[C@H]2CCc3c(C(=O)Nc4ccc(F)c(Cl)c4)ccc(F)c32)n1` [Compound 73, O-(6-Methylpyridin-2-yl)methyl, N—(S)-(4-((3-chloro-4-fluorophenyl)carbamoyl)-7-fluoro-2,3-dihydro-1H-inden-1-yl) carbamate], the EC50 under setting [2] stood at 0.25 µM.

For `O=C(NCc1ccccn1)O[C@H]1CCc2c(C(=O)Nc3ccc(F)c(Cl)c3)ccc(F)c21` [Compound 74, N—(S)-4-((3-Chloro-4-fluorophenyl)carbamoyl)-7-fluoro-2,3-dihydro-1H-inden-1-yl, O-(pyridin-2-ylmethyl) carbamate], the EC50 under setting [2] came to 1.6 µM. Still for that read-out and setting: with `COCC(=O)N[C@H]1CCc2c(C(=O)Nc3ccc(F)c(Cl)c3)ccc(F)c21` [Compound 75, (S)—N-(3-Chloro-4-fluorophenyl)-7-fluoro-1-(2-methoxyacetamido)-2,3-dihydro-1H-indene-4-carboxamide] the figure was 1.4 µM.

Take `O=C(N[C@H]1CCc2c(C(=O)Nc3ccc(F)c(Cl)c3)ccc(F)c21)OCCF` [Compound 76, O-2-Fluoroethyl, N—(S)-(4-((3-chloro-4-fluorophenyl)carbamoyl)-7-fluoro-2,3-dihydro-1H-inden-1-yl) carbamate]: the EC50 (HepDE19 cells, inhibition of rcDNA formation, 7 day incubation, top concentration 25 μM, read-out: DE-19 bDNA EC50) was 0.11 µM. For `CC(=O)N[C@H]1CCc2c(C(=O)Nc3ccc(F)c(Cl)c3)ccc(F)c21` [Compound 77, (S)-1-Acetamido-N-(3-chloro-4-fluorophenyl)-7-fluoro-2,3-dihydro-1H-indene-4-carboxamide], the EC50 under setting [2] was 0.2 µM.

With `O=C(N[C@H]1CCc2c(C(=O)Nc3ccc(F)c(Cl)c3)ccc(F)c21)OCc1cnccn1` [Compound 78, O-Pyrazin-2-ylmethyl, N—(S)-(4-((3-chloro-4-fluorophenyl)carbamoyl)-7-fluoro-2,3-dihydro-1H-inden-1-yl) carbamate], the EC50 under setting [1] is 0.09 µM. For `O=C(N[C@H]1CCc2c(C(=O)Nc3ccc(F)c(Cl)c3)ccc(F)c21)OCc1ncccn1` [Compound 79, O-Pyrimidin-2-ylmethyl, N—(S)-(4-((3-chloro-4-fluorophenyl)carbamoyl)-7-fluoro-2,3-dihydro-1H-inden-1-yl) carbamate], under setting [1], the EC50 turned out to be 0.12 µM. Same read-out and setting: with `O=C(N[C@H]1CCc2c(C(=O)Nc3ccc(F)c(Cl)c3)ccc(F)c21)OCc1cc(Cl)ccn1` [Compound 80, O-(4-Chloropyridin-2-yl)methyl, N—(S)-(4-((3-chloro-4-fluorophenyl)carbamoyl)-7-fluoro-2,3-dihydro-1H-inden-1-yl) carbamate Hydrochloride] the figure was 0.33 µM.

Consider `O=C(Nc1ccc(F)c(Cl)c1)c1ccc(F)c2c1CC[C@@H]2O` [Compound 81, (S)—N-(3-Chloro-4-fluorophenyl)-7-fluoro-1-hydroxy-2,3-dihydro-1H-indene-4-carboxamide], for which, under setting [2], the EC50 came out at 0.67 µM. On to `O=C(N[C@H]1CCc2c(C(=O)Nc3ccc(F)c(Cl)c3)ccc(F)c21)OCc1ccon1` [Compound 82, O-Isoxazol-3-ylmethyl, N—(S)-(4-((3-chloro-4-fluorophenyl)carbamoyl)-7-fluoro-2,3-dihydro-1H-inden-1-yl) carbamate], for which, under setting [1], the EC50 turned out to be 0.13 µM. Still for that read-out and setting: with `O=C(N[C@H]1CCc2c(C(=O)Nc3ccc(F)c(Cl)c3)ccc(F)c21)OCCc1ccccn1` [Compound 83, O-2-(Pyridin-2-yl)ethyl, N—(S)-(4-((3-chloro-4-fluorophenyl)carbamoyl)-7-fluoro-2,3-dihydro-1H-inden-1-yl) carbamate Hydrochloride] the figure was 0.18 µM.

As to `O=C(N[C@H]1CCc2c(C(=O)Nc3ccc(F)c(Cl)c3)ccc(F)c21)OCC(F)F` [Compound 84, O-2,2-Difluoroethyl, N—(S)-(4-((3-chloro-4-fluorophenyl)carbamoyl)-7-fluoro-2,3-dihydro-1H-inden-1-yl) carbamate], under setting [2], the EC50 came out at 0.17 µM.

For `O=C(N[C@H]1CCc2c(C(=O)Nc3ccc(F)c(Cl)c3)ccc(F)c21)OCc1ccncn1` [Compound 85, O-Pyrimidin-4-ylmethyl, N—(S)-(4-((3-chloro-4-fluorophenyl)carbamoyl)-7-fluoro-2,3-dihydro-1H-inden-1-yl) carbamate], the EC50 under setting [2] was 0.58 µM.

Turning to `O=C(N[C@H]1CCc2c(C(=O)Nc3ccc(F)c(Cl)c3)ccc(F)c21)OCCCN1CCCC1=O` [Compound 86, O-3-(2-Oxopyrrolidin-1-yl)propyl, N—(S)-(4-((3-chloro-4-fluorophenyl)carbamoyl)-7-fluoro-2,3-dihydro-1H-inden-1-yl) carbamate], under setting [1], the EC50 was found to be 0.43 µM. On the same count and under the same terms, with `Cc1cccn2cc(COC(=O)N[C@H]3CCc4c(C(=O)Nc5ccc(F)c(Cl)c5)ccc(F)c43)nc12` [Compound 87, O-(8-Methylimidazo[1,2-a]pyridin-2-yl)methyl, N—(S)-(4-((3-chloro-4-fluorophenyl)carbamoyl)-7-fluoro-2,3-dihydro-1H-inden-1-yl) carbamate Hydrochloride] the figure was 0.2 µM. For the compound `O=C(N[C@H]1CCc2c(C(=O)Nc3ccc(F)c(Cl)c3)ccc(F)c21)OCC(F)(F)F` [Compound 88, O-2,2,2-Trifluoroethyl, N—(S)-(4-((3-chloro-4-fluorophenyl)carbamoyl)-7-fluoro-2,3-dihydro-1H-inden-1-yl) carbamate], the EC50 under setting [1] came to 0.21 µM.

On to `CNC(=O)O[C@H]1CCc2c(C(=O)Nc3ccc(F)c(Cl)c3)ccc(F)c21` [Compound 89, O—(S)-4-((3-Chloro-4-fluorophenyl)carbamoyl)-7-fluoro-2,3-dihydro-1H-inden-1-yl, N-methyl Carbamate], for which the EC50 under setting [2] was found to be 0.56 µM.
